Assay results published in patent US4146622A, “Aziridinyl quinone anti-transplanted tumor agents” (priority 1977, dated 1979).
Converted amounts (≈) assume the structure as drawn. “And” between values parts separate entries of the source, which are not always exact repeats. Equal entries are not always repeated. “Also recorded” adds a separate entry of the source. Where two headings read alike, the source gives them in different places.

How the values were obtained:
ependymoblastoma = assay: Intracerebral (IC) ependymoblastoma (EM) brain tumor test; format: in vivo, murine; conditions: for OD (optimum dose) / ILS (percentage increase in life span) / animals alive per 6 test animals on day of termination: Table X, IC ependymoblastoma; for OD (optimum dose): QD1-5; for ILS (percentage increase in life span) / animals alive per 6 test animals on day of termination: QD1-5, at OD; for antitumor activity: IC ependymoblastoma (EM)
From the text: ^c Ic tumor implantation, ip QD1-5 treatment schedule.
^g Number of animals alive per six test animals on day of termination
of experiment (day 99 for expt 133 and day 60 for expt 136 and 144).
A third IC transplanted mouse tumor model, the ependymoblastoma system, was also studied. This system requires intracerebral implantation of a solid tumor fragment while the IC L1210 and IC P388 systems utilize IC inoculated ascites tumor fluid. All three use IP drug treatment however. […] Cures (survivors from the group of six mice on the last day of the experiment) are indicated. Experiments 136 and 144 were terminated on day 60. Since the number of cures was about the same, the differences in T/C values in these two experiments reflect differences in the life span of the two different sets of control animals. Experiment 133 was terminated on day 99 with a resulting higher activity value.
The hydrophilic dihydroxypropylamino compound (No. 39), which was curative in the IP L1210 and P388 leukemia systems, was active but gave a large spread in ILS values (53-186%). […] Again, its hydrophilic character may present transport problems in this IC tumor system.

[1] = Room temperature water solubility; format: physicochemical
Protocol: In the following examples, all melting points are uncorrected and were recorded on a Thomas-Hoover capillary melting point apparatus. Elemental analyses were performed by NIAMDD, NIH, Bethesda, Maryland. Fluoranil, ethyleneimine and 2l -methylethyleneimine were obtained commerically. […] New compounds were identified by nmr and ir spectroscopy. In the tetraamino derivatives, the methylene protons of the aziridine rings usually occurred as a singlet at δ2.0-2.2 in CDCl3 or DMSO-d6. This absorption appeared at δ2.40 (CDCl3) for compound 11. Carbonyl absorption frequencies (nujol mull) occurred in the range 1620-1640 cm^-1 for the tetraamino compounds. Satisfactory elemental analyses (+0.4% of calculated values) are indicated by elemental symbols in Table VII. Room temperature water solubilities were determined by the incremental addition (pipet) of water to a weighed amount of compound with shaking. The solubility values in Table VII must be considered as approximate.

[2] = tested on: P388 lymphocytic leukemia; assay: Intraperitoneal (IP) lymphocytic leukemia P388 transplanted mouse tumor test; format: in vivo, murine; conditions: for OD (optimum dose) / ILS (percentage increase in life span) / animals alive per 6 test animals on day of termination: Table IX; for OD (optimum dose): IP P388, QD1-9; for ILS (percentage increase in life span) / animals alive per 6 test animals on day of termination: IP P388, QD1-9, at OD; for antitumor activity: IP P388; for cures: P388, 30 day survivors, QD1-9; for animals alive per 6 test animals on day of termination / survivors (number in parentheses) P388: day 30; for survivors (number in parentheses) P388: Table XI, per 6 test animals
From the text: (§1) ^b Ip tumor implantation, ip QD1-9 treatment schedule.
(§2) The L1210, P388 and B16 test systems described in Table II utilize intraperitoneal (IP) tumor implantation and IP drug treatment while the Lewis lung system employs subcutaneous tumor implantation and IP treatment.
(§3) Aqueous saline solution (0.9%) was used as the drug vehicle. Normally, five doses were employed per experiment with the top dose chosen to produce toxicity. The lower doses were 50% of each preceeding dose.
(§4) Consistent with NCI antitumor test protocols, intraperitoneal (IP) administration of the drug was employed with all five tumor systems investigated. Tumor implantation was IP in the systems designated IP leukemia L1210 and P388 as well as B16 melanoma.

[3] = Octanol/H2O partition coefficient (log P); format: physicochemical; conditions: Table VII, octanol/H2O; for logP: octanol/water
From the text: ^(b) Octanol/H2 O values determined by C. Hansch and M. Yamakawa

lymphoid leukemia L1210 [4] = assay: Intraperitoneal (IP) lymphoid leukemia L1210 transplanted mouse tumor test; format: in vivo, murine; conditions: for OD (optimum dose) / animals alive per 6 test animals on day of termination / T - C (average weight change of test group minus control) / ILS (percentage increase in life span): Table VIII; for animals alive per 6 test animals on day of termination / survivors (number in parentheses) IP L1210: day 30; for ILS (%) IP L1210 / survivors (number in parentheses) IP L1210: Table XI; for ILS (%) IP L1210: outstanding activity; for survivors (number in parentheses) IP L1210: per 6 test animals; for T - C (average weight change of test group minus control): day 5; for cures: survivors on day 30, L1210
From the text: ^(a) Day 1-9 treatment schedule (9 injections)
^(b) Day 1,5,9 treatment schedule (3 injections)
^(c) Day 1 only treatment schedule (1 injection)
^(f) Percentage increase in life span of treated animals [(treated
survival .div. control survival) × 100%] - 100%

B16 melanocarcinoma = assay: Intraperitoneal B16 melanocarcinoma transplanted mouse tumor test; format: in vivo, murine; conditions: for antitumor activity: B16 melanoma; for OD (optimum dose) / ILS (percentage increase in life span): Table IX; for OD (optimum dose): B16, QD1-9; for ILS (percentage increase in life span): B16, QD1-9, at OD
From the text: as §1, §2, §3, §4

lymphoid leukemia L1210 [5] = assay: Intracerebral (IC) lymphoid leukemia L1210 test; format: in vivo, murine; conditions: for OD (optimum dose): IC L1210, QD1-9; for antitumor activity: IC L1210
From the text: ^b Ic tumor implantation, ip QD1-9 treatment schedule.
The L1210, P388 and B16 test systems described in Table II utilize intraperitoneal (IP) tumor implantation and IP drug treatment while the Lewis lung system employs subcutaneous tumor implantation and IP treatment. All three CNS tumor models (Table III) use intracerebral (IC) tumor implantation and IP treatment.
Consistent with NCI antitumor test protocols, intraperitoneal (IP) administration of the drug was employed with all five tumor systems investigated. Tumor implantation was IP in the systems designated IP leukemia L1210 and P388 as well as B16 melanoma. Intracerebral (IC) tumor implantation was utilized in the IC L1210 and ependymoblastoma tumor systems.

[6] = tested on: IP ascites tumor systems (leukemia L1210 and P388); assay: IP ascites tumor systems (leukemia L1210 and P388); format: in vivo, murine
From the text: The criterion for minimum activity, %ILS, is defined here as follows: Intraperitoneal and intracerebral leukemia L1210 and intraperitoneal leukemia P388, 25%; intraperitoneal B16 melanoma and intracerebral ependymoblastoma, 40%. Consistent with NCI antitumor test protocols, intraperitoneal (IP) administration of the drug was employed with all five tumor systems investigated. Tumor implantation was IP in the systems designated IP leukemia L1210 and P388 as well as B16 melanoma. Intracerebral (IC) tumor implantation was utilized in the IC L1210 and ependymoblastoma tumor systems.

lymphoid leukemia L1210 [7] = conditions: cited from earlier work; for antitumor activity, prior testing: L1210 system, prior/literature
[8] = water, Table VII, room temperature, approximate, read-out: Approx. H2O Sol.
[9] = IP L1210, Q4D(1,5,9) (3 injections)
[10] = Table X, IC L1210, QD1-9, at OD
[11] = IP L1210, Day 1 only (1 injection)

## CN(CCO)C1=C(N2CC2)C(=O)C(N(C)CCO)=C(N2CC2)C1=O [Compound 42]
ependymoblastoma
  OD (optimum dose): 0.4 mg/kg/injection and 0.2 mg/kg/injection
  ILS (percentage increase in life span): 84% and 69%
[1]; [8]
  solubility: 60 mg/mL (≈ 178 mM)
[2]
  OD (optimum dose): 1.6 mg/kg/injection and 0.8 mg/kg/injection
  ILS (percentage increase in life span): 162% and 145%
[3]
  logP: -0.38
Lymphoid leukemia L1210 [4]; [9]
  OD (optimum dose): 0.4 mg/kg/injection and 0.2 mg/kg/injection
Lymphoid leukemia L1210 [4]; IP L1210, QD1-9 (9 injections)
  OD (optimum dose): 1.5 mg/kg/injection
Lymphoid leukemia L1210 [4]; IP L1210, QD1-9, at OD
  animals alive per 6 test animals on day of termination: 1
Lymphoid leukemia L1210 [4]
  ILS (%) IP L1210: 114%
  survivors (number in parentheses) IP L1210: 1
B16 melanocarcinoma
  antitumor activity: approached minimal reproducible activity
  OD (optimum dose): 0.8 mg/kg/injection
  ILS (percentage increase in life span): 47% and 31%
Lymphoid leukemia L1210 [5]; Table X
  OD (optimum dose): 4.0 mg/kg/injection and 2.0 mg/kg/injection
Lymphoid leukemia L1210 [5]; [10]
  ILS (percentage increase in life span): 45% and 32%

## O=C1C(N2CCOCC2)=C(N2CC2)C(=O)C(N2CCOCC2)=C1N1CC1 [Compound 46, 2,5-Diaziridinyl-3,6-dimorpholino-1,4-benzoquinone]
ependymoblastoma
  ILS (percentage increase in life span): 134% and 82%
[1]; [8]
  solubility: < 0.1 mg/mL
[2]
  OD (optimum dose): 0.5 mg/kg/injection and 0.7 mg/kg/injection
  ILS (percentage increase in life span): 52% and 48%
[3]
  log P: 0.52
Lymphoid leukemia L1210 [4]; [9]
  OD (optimum dose): 6.0 mg/kg/injection
Lymphoid leukemia L1210 [4]; IP L1210, Q4D(1,5,9), at OD
  T - C (average weight change of test group minus control): -2.6 grams
B16 melanocarcinoma
  ILS (percentage increase in life span): 24% and 17%

## O=C1C(NCC(O)CO)=C(N2CC2)C(=O)C(NCC(O)CO)=C1N1CC1 (stereo not shown) [Compound 39]
ependymoblastoma; EM, repeat tests
  ILS values (spread): 53-186%
ependymoblastoma
  antitumor activity: moderate to good EM activity
  ILS (percentage increase in life span): 99% and 53%
ependymoblastoma; day 60
  animals alive per 6 test animals on day of termination: 1
[1]; [8]
  solubility: 30 mg/mL (≈ 81.4 mM)
[6]
  antitumor activity: curative; also recorded: probably the most active compound
[2]
  antitumor activity: very active
  cures: multiple cures
  OD (optimum dose): 4.0 mg/kg/injection
  ILS (percentage increase in life span): 143% and 141%
  animals alive per 6 test animals on day of termination: 6 and 4
  survivors (number in parentheses) P388: 6
[3]
  log P: -1.97
Lymphoid leukemia L1210 [4]; IP L1210
  maximum ILS: > 200%
Lymphoid leukemia L1210 [4]; IP L1210, tetraaminobenzoquinone series (Table VIII)
  antitumor activity: Excellent activity
Lymphoid leukemia L1210 [4]; [11]
  OD (optimum dose): 4.0 mg/kg/injection and 2.0 mg/kg/injection
Lymphoid leukemia L1210 [4]; IP L1210, Day 1 only, at OD
  animals alive per 6 test animals on day of termination: 4
Lymphoid leukemia L1210 [4]; [9]
  OD (optimum dose): 4.0 mg/kg/injection and 8.0 mg/kg/injection
Lymphoid leukemia L1210 [4]; IP L1210, QD1-9 (9 injections)
  OD (optimum dose): 4.0 mg/kg/injection and 2.0 mg/kg/injection
Lymphoid leukemia L1210 [4]
  ILS (%) IP L1210: 206%
  survivors (number in parentheses) IP L1210: 5
  cures: produced cures
Lymphoid leukemia L1210 [4]; listed as dihydroxypropylamino
  cures: Multiple cures
B16 melanocarcinoma
  antitumor activity: active
  OD (optimum dose): 4.0 mg/kg/injection and 6.0 mg/kg/injection
  ILS (percentage increase in life span): 50% and 42%
B16 melanocarcinoma; Table XI, outstanding activity
  ILS (%) B16: 50%
Lymphoid leukemia L1210 [5]
  antitumor activity: marginal
Lymphoid leukemia L1210 [5]; Table X
  OD (optimum dose): 4.0 mg/kg/injection
Lymphoid leukemia L1210 [5]; [10]
  ILS (percentage increase in life span): 41% and 43%

## O=C1C(N2CC2)=C(N2CC2)C(=O)C(N2CC2)=C1N1CC1 [tetraaziridinyl derivative]
Lymphoid leukemia L1210 [7]; L1210 leukemia system, earlier evaluation
  ILS: 39%

## NC1=C(N2CC2)C(=O)C(N)=C(N2CC2)C1=O [Compound 33, 2,5-Dizairidinyl-3,6-diamino-1,4-benzoquinone]
ependymoblastoma
  antitumor activity: among the most active materials
  OD (optimum dose): 0.2 mg/kg/injection
  ILS (percentage increase in life span): 215% and 177%
ependymoblastoma; day 60
  animals alive per 6 test animals on day of termination: 4 and 6
ependymoblastoma; Table XI, per 6 test animals, day 60
  survivors (number in parentheses) EM: 6
[1]
  solubility: insoluble in any solvent; also recorded: exceptionally insoluble
[1]; [8]
  solubility: < 0.1 mg/mL
[6]
  antitumor activity: active
[2]
  OD (optimum dose): 0.2 mg/kg/injection
  ILS (percentage increase in life span): 171% and 156%
  animals alive per 6 test animals on day of termination: 1
  survivors (number in parentheses) P388: 1
Lymphoid leukemia L1210 [4]; [11]
  OD (optimum dose): 1.0 mg/kg/injection and 0.5 mg/kg/injection
Lymphoid leukemia L1210 [4]; IP L1210, Q4D(1,5,9), at OD
  ILS (percentage increase in life span): 161% and 124%
  animals alive per 6 test animals on day of termination: 3 and 2
Lymphoid leukemia L1210 [4]; IP L1210, QD1-9 (9 injections)
  OD (optimum dose): 0.4 mg/kg/injection and 0.3 mg/kg/injection
Lymphoid leukemia L1210 [4]; IP L1210, QD1-9, at OD
  ILS (percentage increase in life span): 115% and 100%
Lymphoid leukemia L1210 [4]
  ILS (%) IP L1210: 161%
  survivors (number in parentheses) IP L1210: 3
B16 melanocarcinoma
  ILS (percentage increase in life span): 31% and 19%
Lymphoid leukemia L1210 [5]
  antitumor activity: most active; also recorded: significant activity
Lymphoid leukemia L1210 [5]; Table X
  OD (optimum dose): 0.3 mg/kg/injection
Lymphoid leukemia L1210 [5]; [10]
  ILS (percentage increase in life span): 60% and 59%
Lymphoid leukemia L1210 [5]; Table XI, outstanding activity
  ILS (%) IC L1210: 60%

## COC1=C(N2CC2)C(=O)C(OC)=C(N2CC2)C1=O [Compound 28]
Lymphoid leukemia L1210 [7]
  antitumor activity, prior testing: intraperitoneal (IP) leukemia L1210 activity

## O=C1C(N2CCN(CCO)CC2)=C(N2CC2)C(=O)C(N2CCN(CCO)CC2)=C1N1CC1 [Compound 47]
ependymoblastoma
  OD (optimum dose): 1.0 mg/kg/injection
  ILS (percentage increase in life span): 75%
[1]; [8]
  solubility: 20 mg/mL (≈ 44.8 mM)
[6]
  antitumor activity: most active; also recorded: superior
[2]
  antitumor activity: very active
  cures: multiple cures
  OD (optimum dose): 0.5 mg/kg/injection and 1.0 mg/kg/injection
  ILS (percentage increase in life span): 149% and 143%
  animals alive per 6 test animals on day of termination: 3 and 6
  survivors (number in parentheses) P388: 3
[3]
  logP: -0.75
Lymphoid leukemia L1210 [4]; [11]
  OD (optimum dose): 4.0 mg/kg/injection
Lymphoid leukemia L1210 [4]; [9]
  OD (optimum dose): 4.0 mg/kg/injection and 2.0 mg/kg/injection
Lymphoid leukemia L1210 [4]; IP L1210, Q4D(1,5,9), at OD
  animals alive per 6 test animals on day of termination: 3 and 4
Lymphoid leukemia L1210 [4]; IP L1210, QD1-9 (9 injections)
  OD (optimum dose): 1.0 mg/kg/injection and 0.5 mg/kg/injection
Lymphoid leukemia L1210 [4]; IP L1210, QD1-9, at OD
  T - C (average weight change of test group minus control): -1.7 grams
  animals alive per 6 test animals on day of termination: 1
Lymphoid leukemia L1210 [4]
  survivors (number in parentheses) IP L1210: 3
  cures: produced cures
B16 melanocarcinoma
  ILS (percentage increase in life span): 22%
Lymphoid leukemia L1210 [5]
  antitumor activity: marginal
Lymphoid leukemia L1210 [5]; Table X
  OD (optimum dose): 2.0 mg/kg/injection and 1.5 mg/kg/injection
Lymphoid leukemia L1210 [5]; [10]
  ILS (percentage increase in life span): 43% and 41%
Lymphoid leukemia L1210 [5]; Table X, IC L1210, QD1-9, at OD, day 5
  T - C (average weight change of test group minus control): -1.4 grams

## O=C1C(Cl)=C(N2CC2)C(=O)C(Cl)=C1N1CC1 [Compound 4, 2,5-dichloro-3,6-diaziridinyl-1,4-benzoquinone]
Lymphoid leukemia L1210 [7]
  antitumor activity, prior testing: inactive

## CC(=O)NC1=C(Cl)C(=O)C(NC(C)=O)=C(Cl)C1=O [Compound 20, 2,5-dichloro-3,5-acetylamino-1,4-benzoquinone]
Lymphoid leukemia L1210 [7]
  antitumor activity, prior testing: inactive
